Earlier results as cited in US20240316072A1, “THERAPEUTIC COMPOSITIONS, […] METHODS OF PREPARATION AND USE THEREOF” (Unique Flower LLC, priority 2023, published 2024).

Conditions: administration of β-Myrcene in the amount of 0.5 mg/g or more; generally understood

## C=CC(=C)CCC=C(C)C [β-Myrcene]
  effect in a subject: heavy, narcotic, “couch lock” effect
